From ChEMBL document CHEMBL1150372, “Synthesis, fluorine-18 radiolabeling, and in vitro characterization of 1-iodophenyl-N-methyl-N-fluoroalkyl-3-isoquinoline carboxamide derivatives as potential PET radioligands for imaging peripheral benzodiazepine receptor” (Bioorg Med Chem, 2008)

What was measured:
Translocator protein [1] = molecular target: Translocator protein (Rattus norvegicus, UniProt P16257); assay: Displacement of [3H]PK11195 from PBR in rat kidney mitochondrial membrane; format: cell membranes
[2] = Lipophilicity, log P at pH 7.4; format: physicochemical; conditions: buffer
Translocator protein [3] = molecular target: Translocator protein (Homo sapiens, UniProt P30536); assay: Binding affinity to human PBR
Chain of Translocator protein (Homo sapiens, UniProt P30536) (P30536 whole entry): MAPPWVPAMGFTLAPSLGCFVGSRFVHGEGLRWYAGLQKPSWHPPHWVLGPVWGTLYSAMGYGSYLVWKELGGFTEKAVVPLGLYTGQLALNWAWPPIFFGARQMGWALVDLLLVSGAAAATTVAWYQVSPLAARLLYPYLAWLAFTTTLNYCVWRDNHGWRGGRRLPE

Chain of Translocator protein (Rattus norvegicus, UniProt P16257) (P16257 whole entry, looked up): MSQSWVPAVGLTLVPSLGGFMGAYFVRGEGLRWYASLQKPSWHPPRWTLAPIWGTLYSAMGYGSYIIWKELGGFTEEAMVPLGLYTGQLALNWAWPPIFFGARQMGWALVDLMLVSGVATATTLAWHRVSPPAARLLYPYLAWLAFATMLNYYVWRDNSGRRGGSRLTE

Row | SMILES | IC50 (Translocator protein [1]) [nM] | other results
1 | CN(CCCF)C(=O)c1cc2ccccc2c(-c2ccccc2I)n1 | 0.28 | –
2 | CN(CCCF)C(=O)c1cc2ccccc2c(-c2cccc(I)c2)n1 | 1.4 | –
3 | CN(CCCF)C(=O)c1cc2ccccc2c(-c2ccc(I)cc2)n1 | 66.5 | –
4 | CN(CCF)C(=O)c1cc2ccccc2c(-c2ccccc2I)n1 | 445 | –
5 | CN(CCC[18F])C(=O)c1cc2ccccc2c(-c2ccccc2I)n1 | – | logD [2]: 3
6 | CCCCCCN(CCCCCC)C(=O)Cc1c(-c2ccc(F)cc2)[nH]c2ccccc12 | – | Kd (Translocator protein [3]): 4 nM
7 | CN1C(=O)CN=C(c2ccc(Cl)cc2)c2cc(Cl)ccc21 [RO-54864] | – | Kd (Translocator protein [3]): 6 nM
